# pEC50: −log10 of the molar value.
# Key:
# [1] = tested on: Venezuelan Equine Encephalitis (Togaviridae) TC-83 strain; assay type: cell-based, Venezuelan equine encephalitis virus; details: read-out: EC50, VEE virus inhibition
# [2] = tested on: Rift Valley Fever Virus (Bunyavirus) MP12 strain; assay type: cell-based; details: read-out: EC50, RVFV MP12 virus inhibition
# [3] = tested on: Vero cells
# [4] = tested on: Chikungunya (Togaviridae) 181/25 strain; assay type: cell-based; details: read-out: EC50, Chikungunya virus inhibition
compound,measurement,setting,value
"CCCCN1C[C@H](O)[C@@H](O)[C@H](O)[C@H]1CO [UV-1, N-Butyl deoxynojirimycin]",pEC50,[1],3.81
"CCCCCCCCCN1C[C@H](O)[C@@H](O)[C@H](O)[C@H]1CO [UV-2, N-Nonyl dexoynojirimycin]",pEC50,[2],4.24
same,toxicity at the highest concentration,[3],toxic
same,toxicity to cells at the highest concentration,[3],toxic
same,pEC50,[4],4.25
same,pEC50,[1],4.92
"CCCOCCCCCCN1C[C@H](O)[C@@H](O)[C@H](O)[C@H]1CO [UV-3, N-(7-Oxadecyl)deoxynojirimycin]",pEC50,[2],3.66
"[N-]=[N+]=Nc1ccc(NCCCCCCN2C[C@H](O)[C@@H](O)[C@H](O)[C@H]2CO)c([N+](=O)[O-])c1 [UV-5, N—(N-{4′-azido-2′-nitrophenyl}-6-aminohexyl)deoxynojirimycin]",pEC50,[2],4.31
same,pEC50,[4],4.66
same,pEC50,[1],5.70
